Key:
FGFR3 signaling = conditions: cited from earlier work
MEK1/2 phosphorylation = assay: Western blotting of MEK phosphorylation in FGF2-treated RCS cells; assay type: cell-based, rat; conditions: 20 μM pretreatment 30 min, 5 ng/ml FGF2 5 min
Method: (§1) RCS cells were treated with 20 μM meclizine for 30 min before adding 5 ng/ml FGF2 (“Vehicle” is no treatment group). After 5 min, cells were lysed in the ice-cold RIPA Lysis Buffer (Santa Cruz) supplemented with proteinase inhibitors. Whole cell lysates were separated on SDS-PAGE and transferred to a nitrocellulose membrane. The phosphorylation levels of molecules in the MAPK pathway were determined by Western blotting using the following antibodies: ERK1/2, phospho-ERK1/2(Thr^202/Tyr^204), MEK1/2, and phospho-MEK1/2(Ser^217/221) (Cell Signaling).

FGF2-treated RCS cells [1] = assay: Alcian blue staining of FGF2-treated RCS cells; assay type: cell-based, rat; conditions: 5 ng/ml FGF2, 72 hours; meclizine 10 μM or 20 μM, CNP 0.2 μM
Method: For Alcian blue staining, growing RCS cells in 12-well plates were added with 5 ng/ml FGF2 and also with either 10 μM meclizine or 0.2 μM CNP (Calbiochem). After 72 hours, cells were fixed with methanol for 30 minutes at −20° C., and stained overnight with 0.5% Alcian Blue 8 GX (Sigma) in 1 N HCl. For quantitative analyses, Alcian blue-stained cells were lysed in 200 μl of 6 M guanidine HCl for 6 hours at room temperature (Reference 28). The optical density of the extracted dye was measured at 610 nm using PowerScan 4 (DS Pharma Biomedical).

[2] = system: HCS-2/8 cells expressing FGFR3-K650E (TD); assay: Growth assay of HCS-2/8 cells expressing FGFR3-K650E; assay type: cell-based, human; conditions: for integrated intensities of Venus signals: K650E-expressing HCS-2/8, 72 hours
Excerpt: (§2) The pRK7-FGFR3-WT, -K650E, and -K650M vectors expressing wild-type and mutant FGFR3 (Reference 29) were kindly provided by Dr. Pavel Krejci (Medical Genetics Institute, Cedars-Sinai Medical Center, LA). The pRK7-FGFR3-G380R was constructed by the QuikChange site-directed mutagenesis kit (Stratagene). The wild-type and mutant FGFR3 cDNAs were excised from pRK7-FGFR3 vectors by double digestion with HindIII and BamHI. The fragments were cloned into the lentivirus vector, CSII-CMV-MCS-IRES2-Venus using the NheI and BamHI sites. CSII-CMV-MCS-IRES2-Venus was kindly provided by Dr. Hiroyuki Miyoshi (Riken BioResource Center, Tsukuba, Japan.). The HindIII site of the insert and the NheI site of the vector were blunted using Quick Blunting Kit (New England Biolabs) before ligation. HEK293 cells were plated in 150-mm dishes the day before transfection. We introduced the pLP1, pLP2, pLP/VSVG plasmids (ViraPower Packaging Mix, Invitrogen), and the CSII-CMV-MCS-IRES2-Venus vector into HEK293 cells with Lipofectamine 2000 (Invitrogen) according to the manufacturer's protocols. At 48 hours after transfection, we filtered the media containing the virus particles using the Millex-HV 0.45 μm PVDF filters (Millex) and purified lentivirus using two steps of ultracentrifugation (Beckman Coulter). The lentivirus was added to the medium of HCS-2/8 or ATDC5 cells. After 48 hours, we confirmed that more than 90% of cells were positive for Venus signals.
HCS-2/8 (Reference 31) cells were seeded in 96-well tissue culture plates. HCS-2/8 cells were then infected with lentivirus expressing either FGFR3-WT, -K650E, or -K650M. After 48 hours, the numbers of cells were estimated by MTS assay. In addition, ˜1×10^5 HCS-2/8 cells in a 12-well tissue plate were introduced with lentivirus expressing FGFR3-K650E. After 72 hours, the fluorescence intensity of the Venus protein was quantified by the ArrayScan VTI HCS Reader (Thermo Scientific).

embryonic tibiae = assay: Bone explant culture of embryonic tibiae; set-up: species or system mouse; conditions: for longitudinal length of embryonic tibiae with FGF2: FGF2 100 ng/ml, day 6, meclizine 20 μM, CNP 0.2 μM
Method: For bone explant culture, tibiae were dissected under the microscope from wild-type mouse embryos on E16.5, placed in 96-well plates, and cultured in α-minimal essential medium (Invitrogen) supplemented with 0.2% bovine serum albumin, 1 mM β-glycerophosphate, and 50 μg/ml ascorbic acid. Embryonic tibiae were further treated with 100 ng/ml FGF2 in the presence or absence of 20 μM meclizine or 0.2 μM CNP for 6 days, then fixed in 10% formaldehyde in phosphate-buffered saline, demineralized with 0.5 M EDTA, and embedded in paraffin. Sections were stained with hematoxylin-eosin and Alcian blue. Images were taken with the SZ61 microscope (Olympus) equipped with the XZ-1 digital camera (Olympus). The longitudinal length of bone, which was defined as the length between proximal and distal articular cartilage, was measured using ImageJ (NIH).

[3] = system: RCS cells expressing caMEK; assay: MTS growth assay of RCS cells expressing constitutively active MEK; assay type: cell-based, rat
Method: (§3) RCS cells, which were kindly provided from Dr. Pavel Krejci (Medical Genetics Institute, Cedars-Sinai Medical Center, LA), were cultured in Dulbecco's Modified Eagle's Medium (DMEM, Invitrogen) supplemented with 10% fetal bovine serum (FBS, Thermo Scientific) (Reference 14). For the RCS growth arrest assays, ˜5×10^3 cells were seeded in 96-well culture plates (Falcon) and incubated for 48 hours in the presence of 10 μM of 1,186 FDA-approved chemical compounds (Prestwick Chemical) and 5 ng/ml of FGF2 (R&D Systems). Cell proliferation was quantified by MTS assay (Cell 96 AQueus One Solution Cell Proliferation Assay, Promega) according to the manufacturer's instructions.
(§4) Clones that express constitutively active mutants in the MAPK/ERK pathway, pcDNA4Myc-ERK2(PD), pcDNA3HA-MEK1(DD), and pcDNA3Flag-C-rafΔN (Reference 30), were kindly provided by Dr. Mutsuhiro Takekawa (Medical Science Institute, Tokyo University, Japan). The inserts were digested with BamHI and XhoI, and were cloned into the CSII-CMV-MCS-IRES2-Venus at the BamHI sites after blunting all digested ends. Lentivirus particles were generated as described above and were applied to RCS cells.

normal mouse [4] = assay: Internal administration to normal pregnant mouse, neonatal mouse evaluated; assay type: in vivo; conditions: in feed to pregnant mouse from day 14 of pregnancy, day 5 after birth
Method: (§5) Meclizine was internally administered to a normal pregnant mouse from day 14 of pregnancy (2 mg of meclizine is contained in 5 g of feed), and the body length and extremity length of the neonatal mouse on day 5 after birth were evaluated. On the other hand, meclizine was internally administered to a normal mouse from week 2 after birth, and the mouse was evaluated in the same manner on week 5.

normal mouse [5] = assay: Internal administration to normal mouse from week 2 after birth; assay type: in vivo; conditions: administered from week 2 after birth, evaluated week 5
Method: as §5

[6] = system: HCS-2/8 cells expressing FGFR3-K650M (SADDAN); assay: Growth assay of HCS-2/8 cells expressing FGFR3-K650M; assay type: cell-based, human; conditions: 20 μM
Excerpt: as §2, with “At 48 hours after transfection, we filtered the media containing the virus particles using the Millex-HV 0.45 μm PVDF filters (Millex) and purified lentivirus using two steps of ultracentrifugation (Beckman Coulter). The lentivirus was added to the medium of HCS-2/8 or ATDC5 cells. After 48 hours, we confirmed that more than 90% of cells were positive for Venus signals.” left out
HCS-2/8 (Reference 31) cells were seeded in 96-well tissue culture plates. […] After 72 hours, the fluorescence intensity of the Venus protein was quantified by the ArrayScan VTI HCS Reader (Thermo Scientific).

[7] = system: RCS cells expressing caRAF; assay: MTS growth assay of RCS cells expressing constitutively active RAF; assay type: cell-based, rat
Method: as §3, §4

ERK1/2 phosphorylation = assay: Western blotting of ERK phosphorylation in FGF2-treated RCS cells; assay type: cell-based, rat; conditions: 20 μM pretreatment 30 min, 5 ng/ml FGF2 5 min
Method: as §1

[8] = system: ischemic injury in the brain and heart; conditions: cited from earlier work
FGF2-treated RCS cells [9] = assay: RCS growth arrest assay (MTS); assay type: cell-based, rat; conditions: for cell toxicity in RCS cells: 50 μM
Method: as §3

[10] = system: ATDC5 cells expressing FGFR3-G380R (ACH); assay: Micromass culture of ATDC5 cells expressing FGFR3-G380R; assay type: cell-based, mouse; conditions: six days, 20 μM meclizine
[11] = system: RCS cells expressing caERK; assay: MTS growth assay of RCS cells expressing constitutively active ERK; assay type: cell-based, rat
Method: as §3, §4

[12] = system: Mmp10, Mmp13, and Adamts1 mRNA; assay: Real-time RT-PCR of matrix proteinases in FGF2-treated RCS cells; assay type: cell-based, rat; conditions: FGF2 four hours; 20 μM meclizine or 0.2 μM CNP
Method: Total RNA was isolated from FGF2-treated RCS cells in the presence of 20 μM of meclizine or 0.2 μM of CNP using Trizol. The first strand cDNA was synthesized with ReverTra Ace (Toyobo). We quantified mRNA expression of matrix proteinases (Mmp10, Mmp13, and Adamts1) using LightCycler 480 Real-Time PCR (Roche) and SYBR Green (Takara). The mRNA levels were normalized for that of Gapdh.

Fgfr3^Y367C/+ mice = conditions: subcutaneous administration; cited from earlier work
[13] = in vivo; cited from earlier work
Fgfr3^ach mice = conditions: continuous intravenous infusion; cited from earlier work

O=C(Nc1cc(C(=O)Nc2ccc(S(=O)(=O)O)cc2S(=O)(=O)O)cc(C(=O)Nc2ccc(S(=O)(=O)O)cc2S(=O)(=O)O)c1)Nc1cc(C(=O)Nc2ccc(S(=O)(=O)O)cc2S(=O)(=O)O)cc(C(=O)Nc2ccc(S(=O)(=O)O)cc2S(=O)(=O)O)c1 [NF449]
FGFR3 signaling in RCS chondrocytes (FGFR3 signaling): inhibits FGFR3 signaling

Cc1cccc(CN2CCN(C(c3ccccc3)c3ccc(Cl)cc3)CC2)c1 (stereo not shown) [meclizine, 1-[(4-chlorophenyl)phenylmethyl]-4-[(3-methylphenyl)methyl]piperazine]
MEK1/2 phosphorylation (MEK1/2 phosphorylation): remained unchanged | Alcian blue staining and chondrocyte-like cell shape (FGF2-treated RCS cells [1]): restored | cellular toxicity in K650E-expressing HCS-2/8 ([2]; 20 μM): without apparent cellular toxicity | growth arrest of K650E-expressing HCS-2/8 ([2]; 20 μM, 48 hours, MTS assay): partially but significantly rescued the growth arrest | integrated intensities of Venus signals [2]: significantly increased | longitudinal length of embryonic tibiae with FGF2 (embryonic tibiae): significantly attenuated FGF2-mediated growth inhibition | length of tibia without FGF2 treatment (embryonic tibiae; without FGF2, day 6, 20 μM): increased the length of tibia | caMEK-mediated growth inhibition [3]: rescued | body length of neonatal mouse (normal mouse [4]): increase | length of superior and inferior limbs of neonatal mouse (normal mouse [4]): increase | body length (normal mouse [5]): increase | tail length (normal mouse [5]): increase | cellular toxicity in K650M-expressing HCS-2/8 [6]: without apparent cellular toxicity | growth arrest of K650M-expressing HCS-2/8 ([6]; 48 hours, MTS assay): partially but significantly rescued the growth arrest | caRAF-mediated growth inhibition [7]: rescued | FGF2-mediated ERK1/2 phosphorylation (ERK1/2 phosphorylation): attenuated | cytoprotective activity against ischemic injury [8]: cytoprotective activities | RCS proliferation, concentration dependence (FGF2-treated RCS cells [9]; 0, 1, 2, 5, 10, 20, and 50 μM, 5 ng/ml FGF2, 48 hours, MTS assay): dose-dependent increases | increase in RCS proliferation (FGF2-treated RCS cells [9]; 10 μM compound, 5 ng/ml FGF2, 48 hours, MTS assay): ≥ 1.4 fold | cell toxicity in RCS cells (FGF2-treated RCS cells [9]): cell toxicity was evident | cell toxicity in RCS cells (FGF2-treated RCS cells [9]; listed as Meclizine): slight toxicity | levels of glycosaminoglycans (Alcian blue, 610 nm absorbance) [10]: significantly increased the levels of glycosaminoglycans | caERK-mediated growth inhibition [11]: had no effect | expressions of Mmp10, Mmp13, and Adamts1 [12]: significantly suppressed

BMN111: CNP analog with extended plasma half-life (PGQEHPNARKYKGANKKGLSKGCFGLKLDRIGSMSGLGC; chains of the INN, looked up)
bone growth in Fgfr3^Y367C/+ mice (Fgfr3^Y367C/+ mice): significant recovery of bone growth | plasma half-life [13]: extended

CNP: C-type natriuretic peptide, potent antagonist of FGFR3 signaling, used as positive control
dwarfism of Fgfr3^ach mice (Fgfr3^ach mice): successfully normalized the dwarfism | Alcian blue staining and chondrocyte-like cell shape (FGF2-treated RCS cells [1]): approximated that of FGF2-negative cells | integrated intensities of Venus signals [2]: increased the integrated Venus signal intensities | longitudinal length of embryonic tibiae with FGF2 (embryonic tibiae): significantly attenuated FGF2-mediated growth inhibition | half-life [13]: very short | levels of glycosaminoglycans (Alcian blue, 610 nm absorbance) [10]: increased the Alcian blue staining | expressions of Mmp10, Mmp13, and Adamts1 [12]: significantly suppressed
